Publication PMC6718988, “Bioactivity and Bactericidal Mechanism of Histidine-Rich β-Hairpin Peptide Against Gram-Negative Bacteria” (International Journal of Molecular Sciences, 2019)
In brackets after ≈: the same amount, converted by molar mass. Where a SMILES comes first, the peptide text is derived from it. [ ]: non-standard residue; d: D form.

Key:
Gram-positive bacteria = details: Gram-positive strains; 256 μM used where no activity at 128 μM
Protocol: (§1) The minimum inhibitory concentration (MIC) was measured using a broth microdilution method to determine the in vitro antimicrobial activity of the peptides. Bacteria were inoculated into MHB and incubated overnight at 37 °C until the bacteria were in log phase growth. Next, we corrected the bacterial concentration to approximately 1 × 10^5 CFU/mL using MHB. The peptides were added to 96-well plates containing 0.01% acetic acid and 0.2% bovine serum albumin at final concentrations ranging from 0.25 to 128 μM. After incubation at 37 °C for 24 h, the absorbance was measured at 492 nm using a microplate reader (Tecan GENios F129004, Tecan, Austria). Broth containing microbes and […] were used as positive and negative controls, respectively. The lowest peptide concentration with no increase in absorbance compared to that of the negative control was defined as the MIC. The experiments were independently performed three times.

[1] = system: Gram-positive and Gram-negative bacteria; details: all strains; 256 μM used where no activity at 128 μM
Protocol: as §1

[2] = system: methicillin-resistant S. aureus ATCC43300; assay: microbe, parasite or virus in culture
Protocol: as §1

E. coli ATCC25922 [3] = assay: microbe, parasite or virus in culture
Protocol: as §1

E. coli K99 = assay: microbe, parasite or virus in culture; details: E. coli K99; MHB, about 1 × 10^5 CFU/mL, 37 °C, 24 h; three independent experiments
Protocol: as §1

S. epidermidis ATCC12228 = assay: microbe, parasite or virus in culture
Protocol: as §1

S. pullorum C7913 = assay: microbe, parasite or virus in culture
Protocol: as §1

E. coli UB1005 = assay: microbe, parasite or virus in culture
Protocol: as §1

E. coli K88 = assay: microbe, parasite or virus in culture; details: E. coli K88; MHB, about 1 × 10^5 CFU/mL, 37 °C, 24 h; three independent experiments
Protocol: as §1

S. aureus ATCC29213 = assay: microbe, parasite or virus in culture
Protocol: as §1

P. aeruginosa ATCC27853 = assay: microbe, parasite or virus in culture
Protocol: as §1

[4] = system: human red blood cells (hRBCs); assay: Hemolytic activity; details: 1 h, OD 570 nm; for hemolysis rate: at the highest concentration (128 μM), 1% hRBC in PBS, 37 °C, 0.1% Triton X-100 positive control; for MHC, minimum hemolytic concentration: concentration causing 5% hemolysis of hRBC, 1% hRBC in PBS pH 7.4, 37 °C, repeated three times
Protocol: Briefly, collected human red blood cells (hRBCs) were washed three times with PBS (pH 7.4) and diluted to 1% in PBS. Next, equal volumes of blood cells were mixed with different peptide concentrations in 96-well plates followed by incubated at 37 °C for 1 h. The mixtures were centrifuged (1000 g, 5 min), and the supernatants were transferred to 96-well plates to measure the optical density (OD) at 570 nm. Untreated blood cells were used as negative controls, and 0.1% Triton X-100-treated blood cells were used as positive controls. The minimum peptide concentration corresponding to 5% hemolytic activity was defined as the minimal hemolytic concentration (MHC). These assays were independently repeated three times.

[5] = RP-HPLC retention time as measure of hydrophobicity; type: physicochemical; details: analytical Kromasil C18 column 4.6 mm × 250 mm, 5.0 μm, acetonitrile, flow 1.0 mL/min, used as measure of hydrophobicity
Protocol: The hydrophobicities of the peptides in solution were reliably mirrored by their high-performance liquid chromatography (HPLC)retention times. The retention times for peptide HI2, HW2, HV2, HF2, and PG-1 were 11.13, 10.55, 12.20, 18.06 and 12.56 min, respectively, indicating the following hydrophobic order: HF2 > PG-1 > HV2 > HI2 > HW2(Table 1).
The designed peptides were synthesized and purified by GL Biochem (Shanghai, China). Acetonitrile was used on an analytical Kromasil C18 column (4.6 mm × 250 mm, 5.0 μm, LC 3000, Beijing, China), and the purity of the peptides was determined to be greater than 95% via reversed-phase high-performance liquid chromatography (RP-HPLC) with a flow rate of 1.0 mL/min. The experimental molecular weights of the peptides were evaluated via ESI-MS analysis, and these values were very close to the calculated masses. Next, the peptides were dissolved in deionized water at a concentration of 2.56 mM, and the peptide solutions were stored at −20 °C.

[6] = LPS binding assay (BODIPY-TR-cadaverine displacement); set-up: species or system E. coli; details: peptide concentration higher than 4 μM; 50 μg/mL LPS, 5 μg/mL BODIPY-TR cadaverine, Tris 50 mM pH 7.4; 100% = 10 μg/mL polymyxin B
Protocol: The abilities of the antimicrobial peptides to bind LPS were determined using the fluorescent dye BODIPY-TR-cadaverine (BC) substitution method. LPS (50 μg/mL) from E. coli O111:B4 was incubated with BC (5 μg/mL) in Tris buffer (50 mm, pH 7.4) for 4 h. Next, 50 μL of various concentrations of peptides (final concentration of 1–64 μM) and 50 μL of LPS-BC mixture were added to 96-well plates, and the fluorescence was measured using a fluorescence spectrophotometer (Infinite 200 pro, Tecan, China) at an excitation wavelength of 580 nm and an emission wavelength of 620 nm. Each test was performed three times. The values were converted to %∆F (AU) using the following equation:%ΔF (AU) = [(Fobs − F0)/(F100 − F0)] × 100 where Fobs is the fluorescence value measured in the presence of the peptide, F0 is the initial fluorescence of LPS with BC without the addition of peptides, F100 is the fluorescence value produced by adding 10 μg/mL polymyxin B.

Gram-negative bacteria = assay: MICs against Gram-negative strains (geometric mean, range); type: cell-based; details: Gram-negative strains; 256 μM used where no activity at 128 μM
Protocol: as §1

E. coli ATCC25922 [7] = assay: Swimming motility assay; type: cell-based; details: E. coli ATCC25922, 0.3% agar, 1–8 μM peptide, 37 °C, 20 h; versus untreated control
Protocol: The cell motility assay was performed on LB medium containing 0.3% agar. The peptides were added to 10 mL of medium at final concentrations of 1–8 μM. After mixing well, the mixtures were poured into 6-well plates and dried for 2 h. Subsequently, an overnight culture of E. coli ATCC 25922 was inoculated in the center of the movement plate. After incubation at 37 °C for 20 h, images were taken using a FluoroChemQ system (Cell biosciences, San Jose, CA, USA). The experiment was independently repeated three times.

E. coli ATCC25922 [8] = assay: SEM characterization of cell morphology; type: cell-based; details: E. coli ATCC25922, 1 × MIC (HV2 8 μM, PG-1 4 μM), 1 h
Protocol: For the SEM sample preparation, E. coli ATCC25922 cells were cultured at 37 °C to mid-log phase in MH broth with constant shaking at 220 rpm, centrifuged at 1000 g and then adjusted to an OD600 of 0.1–0.2 in PBS. […] Bacteria incubated with PBS served as controls. After the incubation, the mixture was centrifuged at 5000 g for 5 min, and the collected bacteria were washed three times with PBS. Approximately 2.5% (w/v) glutaraldehyde was added for fixation at 4 °C overnight, followed by washing three times with PBS. The samples were dehydrated with 50%, 70%, 90%, 100% ethanol for 10 min. A mixture of ethanol and tert-butanol was added to the dried bacterial cells for 30 min, and then t-butanol was added for 1 h. Finally, the samples were dehydrated and coated with liquid CO2 in a critical point dryer and then observed using a Hitachi S-4800 SEM (Hitachi, Tokyo, Japan).

E. coli ATCC25922 [9] = assay: Salt sensitivity assay (MIC in presence of physiological salts); type: cell-based; set-up: unit not given here
Protocol: Bacteria were inoculated into MHB and incubated overnight at 37 °C until the bacteria were in log phase growth. Next, we corrected the bacterial concentration to approximately 1 × 10^5 CFU/mL using MHB. […] After incubation at 37 °C for 24 h, the absorbance was measured at 492 nm using a microplate reader (Tecan GENios F129004, Tecan, Austria). Broth containing microbes and […] were used as positive and negative controls, respectively. The lowest peptide concentration with no increase in absorbance compared to that of the negative control was defined as the MIC. The experiments were independently performed three times. The effects of salt ions on the antibacterial activities of the antimicrobial peptides were evaluated. Different salt ion concentrations were added to BSA peptide dilutions, and the next steps followed the MIC measurement method. […] These tests were independently repeated three times.

With `N=C(N)NCCC[C@H](NC(=O)[C@H](CCCNC(=N)N)NC(=O)[C@H](Cc1c[nH]c2ccccc12)NC(=O)[C@H](Cc1c[nH]cn1)NC(=O)[C@H](Cc1c[nH]c2ccccc12)NC(=O)[C@H](Cc1c[nH]cn1)NC(=O)[C@H](Cc1c[nH]c2ccccc12)NC(=O)CNC(=O)[C@H]1CCCN1C(=O)[C@H](Cc1c[nH]c2ccccc12)NC(=O)[C@H](Cc1c[nH]cn1)NC(=O)[C@H](Cc1c[nH]c2ccccc12)NC(=O)[C@H](Cc1c[nH]cn1)NC(=O)[C@H](Cc1c[nH]c2ccccc12)NC(=O)[C@H](CCCNC(=N)N)NC(=O)[C@@H](N)CCCNC(=N)N)C(N)=O` [HW2] (H-RRWHWHW[dP]GWHWHWRR-NH2; N-terminus assumed) the “MBC (GM), geometric mean of MICs, Gram (+)” value (Gram-positive bacteria) was 2.52 µM, the “MBC (GM), geometric mean of MICs, Gram (+,−)” value [1] was 3.17 µM and the MIC ([2]; ATCC43300, 24 h) was 2 µM (≈ 4.92 µg/mL). For the same molecule, the MIC (E. coli ATCC25922 [3]; ATCC25922, 24 h) was 4 µM (≈ 9.85 µg/mL), the MIC (E. coli K99) was 4 µM (≈ 9.85 µg/mL) and the MIC (S. epidermidis ATCC12228; ATCC12228, 24 h) was 2 µM (≈ 4.92 µg/mL). The MIC (S. pullorum C7913; C7913, 24 h) was 2 µM (≈ 4.92 µg/mL), the MIC (E. coli UB1005; UB1005, 24 h) was 2 µM (≈ 4.92 µg/mL) and the MIC (E. coli K88) was 4 µM (≈ 9.85 µg/mL). The MIC (S. aureus ATCC29213; ATCC29213, 24 h) was 4 µM (≈ 9.85 µg/mL), the MIC (P. aeruginosa ATCC27853; ATCC27853, 24 h) was 8 µM (≈ 19.7 µg/mL) and the hemolysis rate [4] was 15.58%. The “MHC, minimum hemolytic concentration” value [4] was 8 µM, the “Retention Time” value [5] was 10.55 min and the “LPS binding ability relative to binding activity of polymyxin B” value [6] was “higher than 60%”. The “MBC (GM), geometric mean of MICs, Gram (−)” value (Gram-negative bacteria) was 3.56 µM.

For “RGGRLCYCRRFCVCVGR-NH2 [PG-1, Protegrin-1, reference compound]”, the “MBC (GM), geometric mean of MICs, Gram (+)” value (Gram-positive bacteria) was 5.04 µM, the “MBC (GM), geometric mean of MICs, Gram (+,−)” value [1] was 3.70 µM and the “swimming motility (diameter of swimming bacteria)” value (E. coli ATCC25922 [7]) was “significantly reduced the diameter of the swimming bacteria”. For the same molecule, the MIC ([2]; S.aureus 43300 (methicillin-resistant), MHB, about 1 × 10^5 CFU/mL, 37 °C, 24 h, three independent experiments) was 8 µM, the MIC (E. coli ATCC25922 [3]; E. coli 25922, MHB, about 1 × 10^5 CFU/mL, 37 °C, 24 h, 0.25-128 μM, three independent experiments) was 4 µM and the MIC (E. coli K99) was 2 µM. It also gave an MIC (S. epidermidis ATCC12228; S.epidermidis 12228, MHB, about 1 × 10^5 CFU/mL, 37 °C, 24 h, three independent experiments) of 8 µM, an MIC (S. pullorum C7913; S.pullorum C7913, MHB, about 1 × 10^5 CFU/mL, 37 °C, 24 h, three independent experiments) of 4 µM and an MIC (E. coli UB1005; E. coli UB1005, MHB, about 1 × 10^5 CFU/mL, 37 °C, 24 h, three independent experiments) of 2 µM. The MIC (E. coli K88) was 2 µM, the MIC (S. aureus ATCC29213; S.aureus 29213, MHB, about 1 × 10^5 CFU/mL, 37 °C, 24 h, three independent experiments) was 2 µM and the MIC (P. aeruginosa ATCC27853; P. auruginosa 27853, MHB, about 1 × 10^5 CFU/mL, 37 °C, 24 h, three independent experiments) was 8 µM. The hemolysis rate [4] was 48.13%, the “MHC, minimum hemolytic concentration” value [4] was 4 µM and the “cell morphology by SEM” value (E. coli ATCC25922 [8]) was “rough and wrinkled”. The “MIC, FeCl3” value (E. coli ATCC25922 [9]; E. coli ATCC25922, 4 μM FeCl3, unit not given) was 4, the “MIC, NH4Cl” value (E. coli ATCC25922 [9]; E. coli ATCC25922, 6 μM NH4Cl, unit not given) was 4 and the “MIC, ZnCl2” value (E. coli ATCC25922 [9]; E. coli ATCC25922, 8 μM ZnCl2, unit not given) was 2. The “MIC, MgCl2” value (E. coli ATCC25922 [9]; E. coli ATCC25922, 1 mM MgCl2, unit not given) was 4, the “MIC, KCl” value (E. coli ATCC25922 [9]; E. coli ATCC25922, 4.5 mM KCl, unit not given) was 4 and the “MIC, NaCl” value (E. coli ATCC25922 [9]; E. coli ATCC25922, 150 mM NaCl, unit not given) was 4. The “MIC, Control” value (E. coli ATCC25922 [9]; E. coli ATCC25922, absence of physiological salts, no unit printed in Table 3 (Table 2 MIC in μM)) was 4, the “Retention Time” value [5] was 12.56 min and the “MBC (GM), geometric mean of MICs, Gram (−)” value (Gram-negative bacteria) was 3.17 µM.
